The target in this experiment is T1, IRAK4 (Homo sapiens, UniProt Q9NWZ3).
T1 sequence (Q9NWZ3 1-460): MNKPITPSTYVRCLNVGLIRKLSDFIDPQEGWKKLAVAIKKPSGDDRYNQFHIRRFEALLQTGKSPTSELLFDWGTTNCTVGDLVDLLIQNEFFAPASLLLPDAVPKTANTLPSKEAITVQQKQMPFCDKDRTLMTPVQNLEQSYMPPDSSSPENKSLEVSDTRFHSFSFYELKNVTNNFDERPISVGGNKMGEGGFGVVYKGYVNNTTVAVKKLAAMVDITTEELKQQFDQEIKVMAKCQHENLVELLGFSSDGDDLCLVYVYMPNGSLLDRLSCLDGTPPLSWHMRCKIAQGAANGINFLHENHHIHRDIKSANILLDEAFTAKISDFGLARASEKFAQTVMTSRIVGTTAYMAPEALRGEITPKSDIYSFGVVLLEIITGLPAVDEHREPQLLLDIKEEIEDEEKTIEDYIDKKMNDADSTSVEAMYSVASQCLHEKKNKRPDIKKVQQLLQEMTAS
Description: Hibit fluorescence detection of proteolysis (IRAK4-HiBiT in HEK293T cells). The experiment is classed as cell-based. Details: host or cells: HEK293T (ATCC). As to conditions: for Dmax: HEK-293T; for DC50: IRAK4-HiBiT, HEK293T cells, 24 h. The essentials: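 Degradation read-out: luminescence from lytic HiBiT detection (15 min, room temperature) after 24 h compound exposure (37 °C, 5% CO2) of HEK293T cells transiently expressing IRAK4 fused to a HiBiT tag. Data fitted to a bell-shaped four-parameter model giving two EC50 values.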
(With HiBiT, luminescence reflects the tagged protein that the partner subunit can reach.)

Read-outs that look alike come from different tables or passages of the source.

With `Cn1c(=O)n(C2CCC(=O)NC2=O)c2cccc(C3CN(C4CN(C[C@H]5CC[C@H](n6cc(-n7cc(-c8ccc9cc(C(N)=O)cnn89)nn7)c(C(F)F)n6)CC5)C4)C3)c21` (stereo partly shown) [Example 83], the Dmax lay within 70 to 80% and the DC50 is below 0.5 nM.

As to `Cn1c(=O)n(C2CCC(=O)NC2=O)c2cccc(NCC3CC4(CCN(C[C@H]5CC[C@H](n6cc(-n7cc(-c8cnn9ccc(N%10CCOCC%10)nc89)nn7)c(C(F)F)n6)CC5)CC4)C3)c21` (stereo partly shown) [Example 9], the Dmax was below 60% and the DC50 was below 0.5 nM.

The molecule `Cn1c(=O)n(C2CCC(=O)NC2=O)c2cccc(C#CC3CN(C[C@H]4CC[C@H](n5cc(-n6cc(-c7ccc8cc(C(N)=O)cnn78)nn6)c(C(F)F)n5)CC4)C3)c21` (stereo partly shown) [Example 87] yielded a Dmax of 70 to 80% and a DC50 of 0.5 to 1 nM.

`Cn1c(=O)n(C2CCC(=O)NC2=O)c2cccc(CC3CCN(CC4CCN(C[C@H]5CC[C@H](n6cc(-n7cc(-c8cnn9ccc(N%10CCOCC%10)nc89)nn7)c(C(F)F)n6)CC5)CC4)CC3)c21` (stereo partly shown) [Example 8] showed a Dmax below 60% and a DC50 above 5 nM.

The molecule `CN(CC1CCN(CCC#Cc2cccc3c2n(C)c(=O)n3C2CCC(=O)NC2=O)CC1)C[C@H]1CC[C@H](n2cc(-n3cc(-c4cnn5ccc(N6CCOCC6)nc45)nn3)c(C(F)F)n2)CC1` (stereo partly shown) [Example 25] registered a Dmax below 60% and a DC50 below 0.5 nM.

`Cn1c(=O)n(C2CCC(=O)NC2=O)c2cccc(N3CC4CN(C[C@H]5CC[C@H](n6cc(-n7cc(-c8cnn9ccc(N%10CCOCC%10)nc89)nn7)c(C(F)F)n6)CC5)CC4C3)c21` (stereo partly drawn) [Example 33, 3-(4-((1R,4R)-4-(3-(difluoromethyl)-4-(4-(5-morpholinopyrazolo[[1,5-a]pyrimidin-3-yl)-1H-1,2,3-triazol-1-yl)-1H-pyrazol-1-yl)cyclohexyl)methylhexahydropyrrolo[3,4-c]pyrrol-2(1H)-yl)-3-methyl-2-oxo-2,3-dihydro-1H-benzo[d]imidazol-1-yl)piperidine-2,6-dione] yielded a Dmax of 60 to 70% and a DC50 below 0.5 nM.

Regarding `C[C@@H]1CN(C[C@H]2CC[C@H](n3cc(-n4cc(-c5cnn6ccc(N7CCOCC7)nc56)nn4)c(C(F)F)n3)CC2)CCN1c1cccc2c1n(C)c(=O)n2C1CCC(=O)NC1=O` (stereo partly drawn) [Example 46, 3-(4-((R)-4-(((1r,4R)-4-(3-(difluoromethyl)-4-(4-(5-morpholinopyrazolo[1,5-a]pyrimidin-3-yl)-1H-1,2,3-triazol-1-yl)-1H-pyrazol-1-yl)cyclohexyl)methyl)-2-methylpiperazin-1-yl)-3-methyl-2-oxo-2,3-dihydro-1H-benzo[d]imidazol-1-yl)piperidine-2,6-dione], the Dmax was 70 to 80% and the DC50 was below 0.5 nM.

Regarding `Cn1c(=O)n(C2CCC(=O)NC2=O)c2cccc(C3CCN(C[C@H]4CC[C@H](n5cc(-n6cc(-n7ccc8cc(C(N)=O)cnc87)nn6)c(C(F)F)n5)CC4)CC3)c21` (stereo partly shown) [Example 101, 1-(1-(3-(difluoromethyl)-1-((1r,4r)-4-((4-(1-(2,6-dioxopiperidin-3-yl)-3-methyl-2-oxo-2,3-dihydro-1H-benzo[d]imidazol-4-yl)piperidin-1-yl)methyl)cyclohexyl)-1H-pyrazol-4-yl)-1H-1,2,3-triazol-4-yl)-1H-pyrrolo[2,3-b]pyridine-5-carboxamide], the Dmax was 70 to 80% and the DC50 is below 0.5 nM.

With `Cn1c(=O)n(C2CCC(=O)NC2=O)c2cccc(N3CCN(C[C@H]4CC[C@H](n5cc(-n6cc(-n7ccc8cc(C(N)=O)cnc87)nn6)c(C(F)F)n5)CC4)CC3)c21` (stereo partly shown) [Example 100, 1-(1-(3-(difluoromethyl)-1-((1r,4r)-4-((4-(1-(2,6-dioxopiperidin-3-yl)-3-methyl-2-oxo-2,3-dihydro-1H-benzo[d]imidazol-4-yl)piperazin-1-yl)methyl)cyclohexyl)-1H-pyrazol-4-yl)-1H-1,2,3-triazol-4-yl)-1H-pyrrolo[2,3-b]pyridine-5-carboxamide], the Dmax fell in the range of 60 to 70% and the DC50 lay in the range of 0.5 to 1 nM.

For `NC(=O)c1cnn2c(-c3cn(-c4cn([C@H]5CC[C@H](CN6CCN(c7ccc(C(=O)NC8CCC(=O)NC8=O)c(F)c7)CC6)CC5)nc4C(F)F)nn3)ccc2c1` (stereo partly shown) [Example 31], the Dmax was 70 to 80% and the DC50 is above 5 nM.

`Cn1c(=O)n(C2CCC(=O)NC2=O)c2cccc(N3CCC4(CCN(C[C@H]5CC[C@H](n6cc(-n7cc(-c8cnn9ccc(NCCC(C)(C)O)nc89)nn7)c(C(F)F)n6)CC5)CC4)C3)c21` (stereo partly shown) [Compound 240] had a Dmax above 80%. Also, the DC50 (read-out: DC50) was below 0.5 nM.

With `Cn1c(=O)n(C2CCC(=O)NC2=O)c2cccc(N3CCC4(CCN(C[C@H]5CC[C@H](n6cc(-n7cc(-c8cnn9ccc(N[C@@H]%10CCCC[C@@H]%10O)nc89)nn7)c(C(F)F)n6)CC5)CC4)C3)c21` (stereo partly shown) [Example 152], the Dmax was above 80% and the DC50 is below 0.5 nM.

`C[C@H]1CN(c2ccn3ncc(-c4cn(-c5cn([C@H]6CC[C@H](CN7CCC8(CC7)CCN(c7cccc9c7n(C)c(=O)n9C7CCC(=O)NC7=O)C8)CC6)nc5C(F)F)nn4)c3n2)CCO1` (stereo partly shown) [Compound 203] showed a Dmax above 80%. The DC50 (read-out: DC50) was below 0.5 nM.

The molecule `Cn1c(=O)n(C2CCC(=O)NC2=O)c2cccc(N3CCC(N4CCN(C[C@H]5CC[C@H](n6cc(-n7cc(-c8ccc9cc(C(N)=O)cnn89)nn7)c(C(F)F)n6)CC5)CC4)CC3)c21` (stereo partly shown) [Example 91, 7-(1-(3-(difluoromethyl)-1-((1r,4r)-4-((4-(1-(1-(2,6-dioxopiperidin-3-yl)-3-methyl-2-oxo-2,3-dihydro-1H-benzo[d]imidazol-4-yl)piperidin-4-yl)piperazin-1-yl)methyl)cyclohexyl)-1H-pyrazol-4-yl)-1H-1,2,3-triazol-4-yl)pyrrolo[1,2-b]pyridazine-3-carboxamide] returned a Dmax above 80% and a DC50 below 0.5 nM.

`Cn1c(=O)n(C2CCC(=O)NC2=O)c2cccc(N[C@H]3CC[C@H](N(C)C[C@H]4CC[C@H](n5cc(-n6cc(-c7cnn8ccc(N9CCC(C)(O)CC9)nc78)nn6)c(C(F)F)n5)CC4)CC3)c21` (stereo partly shown) [Compound 237] came in with a Dmax of 70 to 80%. For the same molecule, under “read-out: DC50”, the DC50 was below 0.5 nM.

As to `Cn1c(=O)n(C2CCC(=O)NC2=O)c2cccc(N3CCN(C[C@H]4CC[C@H](n5cc(-n6cc(-c7cnn8ccc(N9CCC(C)(O)CC9)nc78)nn6)c(C(F)F)n5)CC4)CC3)c21` (stereo partly shown) [Compound 235], the Dmax was above 80%. For the same molecule, the DC50 (read-out: DC50) was below 0.5 nM.

On to `Cn1c(=O)n(C2CCC(=O)NC2=O)c2cccc(N3CCC4(CCN(C[C@H]5CC[C@H](n6cc(-n7cc(-c8cnn9ccc(NCC%10CC%10)nc89)nn7)c(C(F)F)n6)CC5)CC4)C3)c21` (stereo partly shown) [Example 109], for which the Dmax is above 80% and the DC50 was in the range of 0.5 to 1 nM.

In turn, `CN1CCN(c2ccn3ncc(-c4cn(-c5cn([C@H]6CC[C@H](CN7CCC8(CC7)CCN(c7cccc9c7n(C)c(=O)n9C7CCC(=O)NC7=O)C8)CC6)nc5C(F)F)nn4)c3n2)CC1` (stereo partly shown) [Compound 228] showed a Dmax of 70 to 80%. Further, for the setting “read-out: DC50”, the DC50 is below 0.5 nM.

On to `Cn1c(=O)n(C2CCC(=O)NC2=O)c2cccc(N3CCC(N4CCN(C[C@H]5CC[C@H](n6cc(-n7cc(-c8cnn9cc(C#N)cnc89)nn7)c(C(F)F)n6)CC5)CC4)CC3)c21` (stereo partly shown) [Compound 197], for which the Dmax fell in the range of 60 to 70%. Further, the DC50 (read-out: DC50) was in the range of 1 to 5 nM.

For `Cn1c(=O)n(C2CCC(=O)NC2=O)c2cccc(NC(=O)CN3CCN(C[C@H]4CC[C@H](n5cc(-n6cc(-n7ccc8cc(C(N)=O)cnc87)nn6)c(C(F)F)n5)CC4)CC3)c21` (stereo partly shown) [Example 107, 1-(1-(3-(difluoromethyl)-1-((1r,4r)-4-((4-(2-((1-(2,6-dioxopiperidin-3-yl)-3-methyl-2-oxo-2,3-dihydro-1H-benzo[d]imidazol-4-yl)amino)-2-oxoethyl)piperazin-1-yl)methyl)cyclohexyl)-1H-pyrazol-4-yl)-1H - 1,2,3-triazol-4-yl)-1H-pyrrolo[2,3-b]pyridine-5-carboxamide], the Dmax was above 80% and the DC50 lay within 1 to 5 nM.

Molecule `Cn1c(=O)n(C2CCC(=O)NC2=O)c2cccc(C#CC3CCN(C[C@H]4CC[C@H](n5cc(-n6cc(-c7cnn8ccc(N9CCOCC9)nc78)nn6)c(C(F)F)n5)CC4)CC3)c21` (stereo partly shown) [Example 17] registered a Dmax of 70 to 80% and a DC50 of 1 to 5 nM.

`Cn1c(=O)n(C2CCC(=O)NC2=O)c2cccc(NC[C@H]3CC[C@@H](N(C)C[C@H]4CC[C@H](n5cc(-n6cc(-c7cnn8ccc(N9CCOCC9)nc78)nn6)c(C(F)F)n5)CC4)CC3)c21` (stereo partly drawn) [Example 21, 3-(4-((((1S,4s)-4-((((1r,4R)-4-(3-(difluoromethyl)-4-(4-(5-morpholinopyrazolo[1,5-a]pyrimidin-3-yl)-1H-1,2,3-triazol-1-yl)-1H-pyrazol-1-yl)cyclohexyl)methyl)(methyl)amino)cyclohexyl)methyl)amino)-3-methyl-2-oxo-2,3-dihydro-1H-benzo[d]imidazol-1-yl)piperidine-2,6-dione] returned a Dmax below 60% and a DC50 below 0.5 nM.

As for `Cn1c(=O)n(C2CCC(=O)NC2=O)c2cccc(C#CC3CN(C[C@H]4CC[C@H](n5cc(-n6cc(-c7cnn8ccc(N9CCOCC9)nc78)nn6)c(C(F)F)n5)CC4)C3)c21` (stereo partly shown) [Example 27], the Dmax was in the range of 60 to 70% and the DC50 was below 0.5 nM.

These data come from patent EP4759807A1, “PROTEOLYSIS TARGETING CHIMERA COMPOUND FOR DEGRADING IRAK4 AND USE THEREOF” (Shenzhen Zhongge Biological Technology Co., Ltd., priority 2023, dated 2025).
